Results reported in article PMC8119466, “A screen of FDA-approved drugs identifies inhibitors of protein tyrosine phosphatase 4A3 (PTP4A3 or PRL-3)” (Scientific Reports, 2021).
Where a name gives a salt, the structure may show the parent alone. Residues, ends and D or L forms follow the SMILES beside them.

Experiments:
Format in all cases: biochemical
Conditions in all cases: FDA-approved drug screen
recombinant PRL-1 = molecular target: T1, recombinant PRL-1 (Homo sapiens, UniProt Q93096); assay: In vitro phosphatase assay (DiFMUP hydrolysis), PRL-1; further: test concentration or dose not given here
T1 construct: 6xHis (N, cleaved yes); made in house; host or cells: E. coli One Shot BL21 Star
T1 sequence (Q93096 1-173): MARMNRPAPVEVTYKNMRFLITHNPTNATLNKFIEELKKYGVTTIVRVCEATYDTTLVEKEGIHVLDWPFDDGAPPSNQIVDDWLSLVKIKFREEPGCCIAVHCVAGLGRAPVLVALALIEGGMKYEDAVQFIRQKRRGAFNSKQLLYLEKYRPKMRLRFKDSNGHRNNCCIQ

recombinant PRL-2 = molecular target: T2, recombinant PRL-2 (Homo sapiens, UniProt Q12974); assay: In vitro phosphatase assay (DiFMUP hydrolysis), PRL-2;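 further: PRL-2 activity read as DiFMUP hydrolysis after 20 min at room temperature with drug, enzyme first pre-reduced at 4 °C for 20 min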
T2 construct: 6xHis (N, cleaved yes); made in house; host or cells: E. coli One Shot BL21 Star
T2 sequence (Q12974 1-167): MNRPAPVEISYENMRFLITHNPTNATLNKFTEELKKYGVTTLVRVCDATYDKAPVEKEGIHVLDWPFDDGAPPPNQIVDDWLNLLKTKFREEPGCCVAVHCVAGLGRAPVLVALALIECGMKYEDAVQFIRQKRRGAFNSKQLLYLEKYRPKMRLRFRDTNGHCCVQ

recombinant PRL-3 = molecular target: T3, recombinant PRL-3 (Homo sapiens, UniProt O75365); assay: In vitro phosphatase assay (DiFMUP hydrolysis), PRL-3; further: test concentration or dose not given here
T3 construct: 6xHis (N, cleaved yes); made in house; host or cells: E. coli One Shot BL21 Star
T3 sequence (O75365 whole entry): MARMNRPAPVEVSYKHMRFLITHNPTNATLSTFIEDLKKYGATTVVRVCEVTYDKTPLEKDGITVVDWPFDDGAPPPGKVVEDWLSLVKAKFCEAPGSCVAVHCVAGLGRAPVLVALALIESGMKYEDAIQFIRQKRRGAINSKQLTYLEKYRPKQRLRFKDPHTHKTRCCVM

% Phosphatase Activity (compared to DMSO) PRL-1 (recombinant PRL-1; compared to DMSO) [%] | % Phosphatase Activity (compared to DMSO) PRL-2 (recombinant PRL-2; compared to DMSO) [%] | % Phosphatase Activity (compared to DMSO) PRL-3 (recombinant PRL-3; compared to DMSO) [%] | Structure (SMILES) | % Phosphatase Activity (compared to DMSO) PRL-1 (recombinant PRL-1; activity compared to DMSO) [%] | % Phosphatase Activity (compared to DMSO) PRL-2 (recombinant PRL-2; activity compared to DMSO) [%] | % Phosphatase Activity (compared to DMSO) PRL-3 (recombinant PRL-3; activity compared to DMSO) [%]
98 | 115 | 92 | Nc1cc(C(Cl)=C(Cl)Cl)c(S(N)(=O)=O)cc1S(N)(=O)=O [Clorsulon] |  |  | 
232 | 329 | 172 | CCOC(=O)C1=C(C)NC(C)=C(C(=O)OCC)C1c1ccccc1/C=C/C(=O)OC(C)(C)C [Lacidipine] |  |  | 
106 | 102 | 69 | CCOC(=O)c1ncn2c1CN(C)C(=O)c1cc(F)ccc1-2 [Flumazenil] |  |  | 
103 | 110 | 92 | COc1ccc(C(Cl)=C(c2ccc(OC)cc2)c2ccc(OC)cc2)cc1 [Chlorotrianisene] |  |  | 
96 | 106 | 71 | COc1ccc2c(c1)c(CC(=O)O)c(C)n2C(=O)c1ccc(Cl)cc1 [Indomethacin] |  |  | 
88 | 80 | 67 | Cc1oncc1C(=O)Nc1ccc(C(F)(F)F)cc1 [Leflunomide] |  |  | 
92 | 94 | 122 | CCCCCCCCCCCCCCCCOP(=O)([O-])OCC[N+](C)(C)C [Miltefosine] |  |  | 
112 | 102 | 81 | Cc1ncc([N+](=O)[O-])n1CC(C)O (stereo not drawn) [Secnidazole] |  |  | 
 |  |  | CS(=O)(=O)c1ccc([C@@H](O)[C@@H](CO)NC(=O)C(Cl)Cl)cc1 [Thiamphenicol] | 103 | 125 | 81
102 | 98 | 97 | O=C(CCCCCCNC(=O)c1cnc(N(c2ccccc2)c2ccccc2)nc1)NO [Rocilinostat (ACY-1215)] |  |  | 
82 | 72 | 68 | NC(=O)N/N=C/c1ccc([N+](=O)[O-])o1 [Nitrofural] |  |  | 
92 | 114 | 98 | CN1CCN2c3ncccc3Cc3ccccc3C2C1 (stereo not drawn) [Mirtazapine] |  |  | 
104 | 94 | 83 | Cc1cc2c(cc1S(N)(=O)=O)S(=O)(=O)CCC2 [Meticrane] |  |  | 
99 | 102 | 114 | CN1CCN(c2cc3c(cc2F)c(=O)c(C(=O)O)cn3-c2ccc(F)cc2)CC1 [Difloxacin HCl] |  |  | 
95 | 101 | 88 | CC(C)Oc1ccc(-c2nc(-c3cccc4c3CC[C@@H]4NCCO)no2)cc1C#N [Ozanimod (RPC1063)] |  |  | 
 |  |  | Cc1ccc(S(=O)(=O)NC(=O)NN2CCCCCC2)cc1 [Tolazamide] | 81 | 84 | 82
96 | 81 | 87 | CCOc1cc(CC(=O)N[C@@H](CC(C)C)c2ccccc2N2CCCCC2)ccc1C(=O)O [Repaglinide] |  |  | 
95 | 105 | 70 | CN(C)CC(c1ccc(O)cc1)C1(O)CCCCC1 (stereo not drawn) [Desvenlafaxine] |  |  | 
114 | 104 | 107 | O=C([O-])C(O)[C@H](O)[C@@H](O)[C@H](O)[C@H](O)CO.O=C([O-])C(O)[C@H](O)[C@@H](O)[C@H](O)[C@H](O)CO.[Ca+2] (stereo partly drawn) [Calcium Gluceptate] |  |  | 
92 | 95 | 85 | COC(=O)[C@H](Cc1ccccc1)NC(=O)[C@@H](N)CC(=O)O [Aspartame] (H-Asp-Phe-OMe) |  |  | 

Structure (SMILES) | % Phosphatase Activity (compared to DMSO) PRL-1 (recombinant PRL-1; compared to DMSO) [%] | % Phosphatase Activity (compared to DMSO) PRL-2 (recombinant PRL-2; compared to DMSO) [%] | % Phosphatase Activity (compared to DMSO) PRL-3 (recombinant PRL-3; compared to DMSO) [%] | % Phosphatase Activity (compared to DMSO) PRL-1 (recombinant PRL-1; activity compared to DMSO) [%] | % Phosphatase Activity (compared to DMSO) PRL-2 (recombinant PRL-2; activity compared to DMSO) [%] | % Phosphatase Activity (compared to DMSO) PRL-3 (recombinant PRL-3; activity compared to DMSO) [%]
O=C1CC[C@@]2(O)[C@H]3Cc4ccc(O)c5c4[C@@]2(CCN3CC2CC2)[C@H]1O5 [Naltrexone HCl] | 100 | 120 | 95 |  |  | 
CC[C@H]1OC(=O)[C@H](C)[C@@H](O[C@H]2C[C@@](C)(OC)[C@@H](O)[C@H](C)O2)[C@H](C)[C@@H](O[C@@H]2O[C@H](C)C[C@H](N(C)C)[C@H]2O)[C@](C)(O)C[C@@H](C)[C@@H]2N[C@@H](COCCOC)O[C@H]([C@H]2C)[C@]1(C)O [Dirithromycin] | 90 | 94 | 74 |  |  | 
CO[C@H]1/C=C/O[C@@]2(C)Oc3c(C)c(O)c4c(O)c(c(/C=N/N5CCN(C)CC5)c(O)c4c3C2=O)NC(=O)/C(C)=C\C=C\[C@H](C)[C@H](O)[C@@H](C)[C@@H](O)[C@@H](C)[C@H](OC(C)=O)[C@@H]1C [Rifampin] | 58 | 49 | 71 |  |  | 
NC(=O)c1ccc(I)c([N+](=O)[O-])c1 [Iniparib (BSI-201)] | 107 | 112 | 78 |  |  | 
Cc1ccc(NC(=O)c2ccc(CN3CC[C@H](N(C)C)C3)c(C(F)(F)F)c2)cc1Nc1nccc(-c2cncnc2)n1 [Bafetinib (INNO-406)] | 97 | 105 | 76 |  |  | 
CO[C@H]1/C=C/O[C@@]2(C)Oc3c(C)c(O)c4c(c3C2=O)C2=NC3(CCN(CC(C)C)CC3)NC2=C(NC(=O)/C(C)=C\C=C\[C@H](C)[C@H](O)[C@@H](C)[C@@H](O)[C@@H](C)[C@H](OC(C)=O)[C@@H]1C)C4=O [Rifabutin] | 61 | 63 | 72 |  |  | 
N.N.O=C([O-])C1(C(=O)[O-])CCC1.[Pt+2] [Carboplatin] | 90 | 79 | 85 |  |  | 
Nc1c(CC(=O)[O-])cccc1C(=O)c1ccccc1.O.[Na+] [Amfenac Sodium Monohydrate] | 89 | 108 | 67 |  |  | 
Cl.Cn1c(CCCC(=O)O)nc2cc(N(CCCl)CCCl)ccc21 [Bendamustine HCl] | 122 | 128 | 79 |  |  | 
O=C(O)CCC(=O)c1ccc(-c2ccccc2)cc1 [Fenbufen] | 98 | 103 | 90 |  |  | 
Cc1cccc(C)c1NC(=O)C1CCCCN1C (stereo not drawn) [Mepivacaine HCl] | 86 | 104 | 87 |  |  | 
C[C@]12C=CC(=O)C=C1CC[C@@H]1[C@@H]2[C@@H](O)C[C@@]2(C)[C@H]1CC[C@]2(O)C(=O)CO [Prednisolone] | 89 | 99 | 103 |  |  | 
O=C(O)c1nn(Cc2ccc(Cl)cc2Cl)c2ccccc12 [Lonidamine] | 102 | 106 | 85 |  |  | 
C[C@@H]1O[C@@H]1P(=O)(O)O.NC(CO)(CO)CO [Fosfomycin Tromethamine] | 100 | 101 | 92 |  |  | 
C[N+](C)(C)CC(O)CC(=O)O.[Cl-] (racemic) [DL-Carnitine HCl] | 100 | 94 | 85 |  |  | 
CC(C(=O)[O-])c1cccc(Oc2ccccc2)c1.CC(C(=O)[O-])c1cccc(Oc2ccccc2)c1.[Ca+2] (stereo not drawn) [Fenoprofen Calcium] | 82 | 80 | 95 |  |  | 
C[C@@H]1[C@H](O)[C@@H](C)/C=C/C=C/C=C/C=C/C=C/C=C/C=C/[C@H](O[C@@H]2O[C@H](C)[C@@H](O)[C@H](N)[C@@H]2O)C[C@@H]2O[C@](O)(C[C@@H](O)C[C@@H](O)[C@H](O)CC[C@@H](O)C[C@@H](O)CC(=O)O[C@H]1C)C[C@H](O)[C@H]2C(=O)O [Amphotericin B] | 102 | 92 | 80 |  |  | 
